Experimental data published in the NIST ThermoML archive (doi:10.1016/j.jct.2008.01.018).

Experiment: mn = molality of the nth substance listed, in mol/kg
Settings: 101 kPa, Liquid; for molar conductivity: Alternating current cell with electrodes; for speed of sound: Sing-around technique in a fixed-path interferometer

O=P([O-])(O)O.[Na+] [sodium dihydrogen phosphate] + O
Settings | mass density [kg/m3] | molar conductivity [S·m2/mol] | speed of sound [m/s]
293.15 K, m1 = 0.5812 | 1047.85 | – | –
293.15 K, m1 = 0.6658 | 1054.7 | – | –
293.15 K, m1 = 0.7462 | 1061.08 | – | –
293.15 K, m1 = 0.9163 | 1074.46 | – | –
293.15 K, m1 = 1.093 | 1088.3 | – | –
293.15 K, m1 = 1.262 | 1100.87 | – | –
293.15 K, m1 = 1.451 | 1114.43 | – | –
293.15 K, m1 = 1.758 | 1135.93 | – | –
293.15 K, m1 = 2.041 | 1155.22 | – | –
293.15 K, m1 = 2.374 | 1177.26 | – | –
293.15 K, m1 = 2.747 | 1200.86 | – | –
293.15 K, m1 = 3.115 | 1222.16 | – | –
293.15 K, m1 = 3.512 | 1245.55 | – | –
298.15 K, m1 = 0.0207 | – | 0.00762 | –
298.15 K, m1 = 0.0343 | 1000.13 | – | 1500.2
298.15 K, m1 = 0.0415 | – | 0.00723 | –
298.15 K, m1 = 0.0484 | 1001.36 | – | 1501.7
298.15 K, m1 = 0.0697 | – | 0.00683 | –
298.15 K, m1 = 0.1051 | – | 0.00655 | –
298.15 K, m1 = 0.1397 | – | 0.00634 | –
298.15 K, m1 = 0.1399 | 1009.35 | – | 1510.6
298.15 K, m1 = 0.167 | 1011.69 | – | 1513.2
298.15 K, m1 = 0.1901 | – | 0.0061 | –
298.15 K, m1 = 0.1967 | 1014.27 | – | 1516.2
298.15 K, m1 = 0.2231 | 1016.57 | – | 1518.7
298.15 K, m1 = 0.2357 | – | 0.0059 | –
298.15 K, m1 = 0.2506 | 1018.89 | – | 1521.3
298.15 K, m1 = 0.2947 | – | 0.00572 | –
298.15 K, m1 = 0.3229 | 1025.07 | – | 1528.2
298.15 K, m1 = 0.3516 | – | 0.00553 | –
298.15 K, m1 = 0.3586 | 1028.07 | – | 1531.5
298.15 K, m1 = 0.433 | – | 0.00533 | –
298.15 K, m1 = 0.4346 | 1034.3 | – | 1538.3
298.15 K, m1 = 0.5108 | 1040.52 | – | 1545
298.15 K, m1 = 0.5113 | – | 0.00517 | –
298.15 K, m1 = 0.5812 | 1046.29 | – | 1551.3
298.15 K, m1 = 0.5842 | – | 0.00496 | –
298.15 K, m1 = 0.653 | – | 0.00484 | –
298.15 K, m1 = 0.6658 | 1053.09 | – | 1558.7
298.15 K, m1 = 0.6999 | – | 0.00475 | –
298.15 K, m1 = 0.7462 | 1059.42 | – | 1565.5
298.15 K, m1 = 0.7919 | – | 0.00457 | –
298.15 K, m1 = 0.9163 | 1072.73 | – | 1579.9
298.15 K, m1 = 0.9206 | – | 0.00436 | –
298.15 K, m1 = 1.093 | 1086.48 | – | 1594.8
298.15 K, m1 = 1.175 | – | 0.00398 | –
298.15 K, m1 = 1.18 | – | 0.00398 | –
298.15 K, m1 = 1.262 | 1098.98 | – | 1608.4
298.15 K, m1 = 1.447 | – | 0.00367 | –
298.15 K, m1 = 1.451 | 1112.46 | – | 1623.1
298.15 K, m1 = 1.758 | 1133.86 | – | 1646.4
298.15 K, m1 = 1.794 | – | 0.00329 | –
298.15 K, m1 = 2.041 | 1153.06 | – | 1667.7
298.15 K, m1 = 2.079 | – | 0.00303 | –
298.15 K, m1 = 2.374 | 1175 | – | 1692.3
298.15 K, m1 = 2.396 | – | 0.00276 | –
298.15 K, m1 = 2.398 | – | 0.00278 | –
298.15 K, m1 = 2.747 | 1198.51 | – | 1718.9
298.15 K, m1 = 3.115 | 1219.74 | – | 1743.2
298.15 K, m1 = 3.512 | 1243.05 | – | 1770.5
303.15 K, m1 = 0.0343 | 998.703 | – | 1512.4
303.15 K, m1 = 0.0484 | 999.924 | – | 1513.9
303.15 K, m1 = 0.1399 | 1007.86 | – | 1522.5
303.15 K, m1 = 0.167 | 1010.18 | – | 1525.1
303.15 K, m1 = 0.1967 | 1012.74 | – | 1527.9
303.15 K, m1 = 0.2231 | 1015.02 | – | 1530.4
303.15 K, m1 = 0.2506 | 1017.33 | – | 1532.9
303.15 K, m1 = 0.3229 | 1023.47 | – | 1539.5
303.15 K, m1 = 0.3586 | 1026.45 | – | 1542.6
303.15 K, m1 = 0.4346 | 1032.64 | – | 1549.3
303.15 K, m1 = 0.5108 | 1038.82 | – | 1555.8
303.15 K, m1 = 0.5812 | 1044.55 | – | 1561.8
303.15 K, m1 = 0.6658 | 1051.31 | – | 1568.9
303.15 K, m1 = 0.7462 | 1057.61 | – | 1575.5
303.15 K, m1 = 0.9163 | 1070.83 | – | 1589.4
303.15 K, m1 = 1.093 | 1084.51 | – | 1603.7
303.15 K, m1 = 1.262 | 1096.94 | – | 1616.8
303.15 K, m1 = 1.451 | 1110.36 | – | 1631
303.15 K, m1 = 1.758 | 1131.66 | – | 1653.4
303.15 K, m1 = 2.041 | 1150.78 | – | 1673.9
303.15 K, m1 = 2.374 | 1172.65 | – | 1697.5
303.15 K, m1 = 2.747 | 1196.07 | – | 1723.2
303.15 K, m1 = 3.115 | 1217.23 | – | 1746.5
303.15 K, m1 = 3.512 | 1240.48 | – | 1772.8
